Experimental data taken from patent US9174988B2, “Small molecule inhibitors of hepatitis C virus” (TRUSTEES OF BOSTON UNIVERSITY, priority 2009, dated 2015).
Where two headings read alike, the source gives them in different places.

Assays:
Huh-7.5 cells = experiment: XTT cytotoxicity assay (CC50); format: cell-based; details: human, 72 h
Description: (§1) This assay utilized the compound XTT (2,3-bis[2-methoxy-4-nitro-5-sulfophenyl]-2H-tetrazolium-5-carboxyanilide inner salt) with addition of an electron coupling agent phenazine methosulfate (PMS) to measure mitochondrial dehydrogenases activity in living cells, e.g., Huh-7.5 cells. Dehydrogenases in mitochondria of living cells cleave the tetrazolium ring of XTT changing the color of the solution from clear to orange. As designed, compounds that reduce cell viability will reduce activity of the mitochondrial dehydrogenases, and leave a decreased orange color in solution.
(§2) The Huh-7.5 cell line was routinely cultured in 15-cm dishes at 37 degrees C. and 95% relative humidity (RH). The growth media consisted of DMEM supplemented with 10% v/v certified fetal bovine serum, 4 mM L-glutamine, 1 mM sodium pyruvate, 1× antibiotic mix (penicillin, streptomycin, and glutamine), and 1× non-essential amino acids.
(§3) Prior to the start of the assay 8000 cells in 100 microliter volume of colorless growth media were dispensed into each well of 96-well tissue culture-treated microtiter plates and incubated overnight at 37 degrees C. (5% CO2, 95% RH) to allow cells to adhere to the plate. The next day, 100 microliter of test compound in DMSO (1.25% final DMSO concentration) and DMSO only were added to wells. Wells with only test compound in media without cells were used to normalize the data (to account for the color a test compound may have). Next, the plates were incubated for 72 hours at 37 degrees C. (5% CO2, 95% RH). Solution of XTT-PMS was prepared in 1×PBS and added to the cells in 50 microliter volume to each well and incubated for 4 hours at 37 degrees C. (5% CO2, 95% RH). After equilibrating the plates to room temperature for 10 minutes, optical density at 450 nm and […] was measured on Biotek plate reader.
(§4) The percent inhibition for each compound was calculated as follows: % Inhibition=((DMSO Control−Test compound)/DMSO Control)*100, wherein Test compound is defined as wells containing test compound.
(§5) Compounds were tested in triplicate in a 7-point 1:3 dilution series starting at a nominal test concentration of 320 micromolar. For each test compound, percent inhibition was plotted against compound concentration. A four parameter equation describing a sigmoidal dose-response curve was then fitted with adjustable baseline using MicroSoft Excel software. The reported CC50 values were generated from fitted curves by solving for the X-intercept value at the 50% inhibition level of the Y-intercept value.

[1] = XTT cytotoxicity assay (CC50); format: cell-based; details: human, CC50
Description: as §1, §2, §3, §4, §5

[2] = molecular target: T1, core106 (HCV core protein domain) dimerization (Hepatitis C virus genotype 1a, UniProt P27958); experiment: Core106 ALPHA screen (AlphaScreen) core dimerization assay; format: binding; details: for inhibition of core dimerization (in words): level of activity in words, partly relative to 16
T1 construct: a core106 protein domain was tagged with either Glutathione-S-transferase (GST) tag or a Flag peptide tag
Protocol: FIG. 16b is a dose-response analysis of compound 1 (SL201). Core106 ALPHA screen assay was used for the dose-response analyses. The compound was dosed from 0 to 100 μM. The IC50 was calculated using a non-linear regression ‘Log (inhibitor) versus response’ with four points for each concentration.
Core106 ALPHA screen assay was used for the dose response analyses. The compounds were dosed from 0 to 100 μM. The IC50 were calculated using a nonlinear regression “Log (inhibitor) vs. response” with 4 points for each concentration. The difference in IC50 for compound 1 (SL201) is due to the using two different lots of SL201 and the values are within experimental error.
This assay employed the AlphaScreen® technology, a secondary Amplified Luminescent Proximity Homogeneous Assay as described in Kota, et al, J. Gen Virol. (2009) 90: 1319-1328, content of which is herein incorporated by reference. AlphaScreen is based on the use of photoactive donor and acceptor beads that recognize specific tags on interacting proteins (Peppard, 2003). Core106 dimerization was confirmed using AlphaScreen technology in which a core106 protein domain was tagged with either Glutathione-S-transferase (GST) tag or a Flag peptide tag. The untagged core106 protein domain was used as a model competitor in the assay. The proteins were diluted to working concentrations in ‘protein buffer’ (100 mM HEPES pH 7.5, 1 mM EDTA, 5 mM DTT, 0.1% CHAPS, 10% glycerol). The donor and acceptor beads were diluted to working concentrations in ‘bead buffer’ (20 mM HEPES pH7.5, 125 mM NaCl, 0.1% BSA, 0.1% CHAPS). GST-tagged core106 (150 nM) was incubated with 150 nM of Flag-tagged core106 for 1 h at room temperature. Anti-Flag acceptor beads (Perkin Elmer Lifesciences) were added to the proteins at a final concentration of 20 μg/ml and incubated for 1 h at room temperature. Then, Glutathione donor beads (Perkin Elmer Lifesciences) were added to the proteins at a final concentration of 20 μg/ml and incubated for 1 h. The assays were executed in a white 384 well Packard opti plate (Perkin Elmer Lifesciences) and were read on Perkin Elmer Envision.
Uninhibited or 0% inhibition control is defined as wells containing only GST-core106 and Flag-core106. 100% inhibition control is defined as wells containing GST-core106 and Flag-core106 with core106 as an inhibitor. Test compound is wherein the test compound is analyzed.
Compounds were tested in triplicate in a 10-point series starting at a nominal test concentration of 50 nM. For each test compound, percent inhibition was plotted against compound concentration. A four parameter equation describing a sigmoidal dose-response curve was plotted using GraphPad Prism® (GraphPad Software Inc). The reported IC50 values were generated from fitted curves by solving for the X-intercept value at the 50% inhibition level of the Y-intercept value.

HCV 2a J6/JFH-1 = experiment: HCV infectivity assay by real-time RT-PCR of HCV RNA (EC50 at T1 and T2); format: cell-based, hepatitis C virus; details: for EC50's (stage not specified): HCV 2a strain J6/JFH-1 in hepatoma cells; for EC50: Hepatitis C virus
Protocol: In this assay HCV infectivity is measured using real-time RT-PCR to monitor changes in expression of HCV 2a J6/JFH-1 RNA. Cells are incubated with test compound in the presence of HCV, followed by isolation of RNA, conversion to cDNA, and Taqman-based QPCR. As designed, a compound that inhibits HCV infectivity will reduce HCV RNA expression, leading to decreased production of the PCR amplicon, thereby reducing fluorescence, and increasing Ct.
Huh-7.5 cells were plated the day before the assay. After allowing the cells to adhere overnight, test compound was prepared in HCV supernatant by making 1:10 serial dilutions from 100 micromolar down to 0.001 micromolar. Doses of test compound in virus were added to cells and incubated for 24 hours. The next day, cell culture media was removed from each well and replaced with same dilutions of compound in complete media were added to cells and incubated for another 48 hours for T1 timepoint. Then cells were lysed and RNA was isolated using the RNeasy kit (QIAGEN, Valencia, Calif.). Supernatant from T1 was transferred to fresh naïve cells and incubated for 24 hours. Culture media were removed from cells and replaced with complete media and incubated for 48 hours for T2 timepoint. Cells for T2 timepoint were lysed and RNA was isolated using the RNeasy kit (QIAGEN, Valencia, Calif.). DNA was generated using the Taqman reverse transcription kit (Applied Biosystems, Foster City, Calif.). Quantitative real-time polymerase chain reaction (PCR) was performed in triplicate using LightCycler RNA Amplification Kit HybProbe master mix (Roche) with Taqman MGB Probe 6FAM-[…]-MGBNFQ on a model LightCycler480 real time PCR system (Roche). Data are expressed as the mean fold change plus or minus SE of 3 replicates normalized to 100 ug total RNA. Primers used were forward […] and reverse […]. The range of activity was normalized based on measurement of total RNA. Compounds were tested in triplicate in a 6-point 1:10 dilution series starting at a nominal test concentration of 100 micromolar.
The compounds were then studied in the same Huh7-5 cells infected with HCV 2a strain J6/JFH-1 (Kota, et al., ASSAY Drug Dev. Tech (2009) 8: 96). Huh-7.5 hepatoma cells were electroporated with RNA from HCV and the 72-hour supernatant was used as a source of infectious virus. This supernatant was combined with compounds identified as inhibitors of core dimerization. Two stages of infection were studied: early stage (T1), corresponding to the initial 72-hour culture of naïve cells infected in the presence of the inhibitor, and late stage (T2), corresponding to the second 72-hour passage through naïve cells. HCV RNA detected in T1 results from actual viral infection and replication. HCV RNA detected in T2 results from infectious virus secreted in T1 and replicated in freshly infected naïve cells. Real-time reverse-transcriptase PCR was done on RNA extracted and purified from the cells treated with increasing concentrations (0.001-100 μM) of each of the compounds. […] For comparative purposes, data for BILN2061a known inhibitor of the NS3/NS4A protease (Lamarre, et al., Nature (2003) 426: 186), is included.

[3] = inhibition of core dimerization, Table 3, read-out: IC50
[4] = inhibition of core dimerization, see FIG. 17, Table 2, read-out: IC50
[5] = Huh7.5, read-out: HCV2a J6/JFH-1 T1-EC50
[6] = Huh7.5, read-out: HCV2a J6/JFH-1 T2-EC50
[7] = AlphaScreen, read-out: IC50 for inhibition of core dimerization

T1 sequence (P27958 2-106): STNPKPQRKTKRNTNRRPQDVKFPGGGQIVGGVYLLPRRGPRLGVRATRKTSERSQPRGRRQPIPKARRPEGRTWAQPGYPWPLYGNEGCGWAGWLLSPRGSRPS

SMILES | CC50 (Huh-7.5 cells) [µM] | CC50 at 72 h [1] [µM] | IC50 [2, 3] [µM] | IC50 [2, 4] [µM] | EC50's (stage not specified) (HCV 2a J6/JFH-1) | EC50 (HCV 2a J6/JFH-1; [5]) [µM] | EC50 (HCV 2a J6/JFH-1; [6]) [µM] | EC50 (HCV 2a J6/JFH-1; read-out: HCV 2A T1 - EC50) [µM] | EC50 (HCV 2a J6/JFH-1; read-out: HCV 2A T2 - EC50) [µM] | IC50 [2, 7] [µM] | inhibition of core dimerization (in words) [2]
CC#CCN1c2ccccc2[C@]23CCC(=O)N(CCOC)C2=NC(C(=O)OC)=C(C(=O)OC)C13 (mixture of isomers) [Compound 15] | > 320 | > 320 | 2 | 2 | single digit | 4.9 | 0.7 | 4.9 | 0.7 | – | –
C=CCN1c2ccccc2[C@]23CCC(=O)N(Cc4ccccc4)C2=NC(C(=O)OC)=C(C(=O)OC)C13 (mixture of isomers) [Compound 16] | 127 | 127 | 1.4 | 1.4 | single digit | 2.3 | 3.2 | 2.3 | 3.2 | 1.4 | –
COC(=O)C1=C(C(=O)OC)C2N(C)c3ccc(OC)cc3[C@@]23C[C@@H](C(=O)OC)N(C(=O)CC(C)C)C3=N1 (single isomer, unassigned) [Compound 1] | > 320 | > 320 | 9.3 | 9.3 | – | 14.8 | 22.2 | 8.8 | 8.1 | 5.7 | –
COC(=O)C1=C(C(=O)OC)C2N(CCCCCn3cc(-c4ccc(OC)cc4C)nn3)c3ccccc3[C@@]23CCC(=O)N(Cc2ccccc2)C3=N1 (some centres unmarked) [Compound 27] | – | > 100 | – | – | – | – | – | 1.4 | 1.1 | 0.092 | sub-micromolar
C=CCN1c2ccccc2[C@]23CCC(=O)N(Cc4cc(OC)c(OC)c(OC)c4)C2=NC(C(=O)OC)=C(C(=O)OC)C13 (mixture of isomers) [Compound 17] | – | 5.3 | 2 | 2 | – | 3.8 | 3 | 3.8 | 3 | – | –
COC(=O)C1=C(C(=O)OC)C(NCCCN2c3ccccc3[C@]34CCC(=O)N(Cc5ccccc5)C3=NC(C(=O)OC)=C(C(=O)OC)C24)[C@@]2(c3ccccc3)CCC(=O)N(Cc3ccccc3)C2=N1 (some centres unmarked) [SL235] | – | > 36 | 2.9 | – | – | – | – | 0.088 | 0.735 | – | –
COc1ccc2c(O[C@@H]3C[C@H]4C(=O)N[C@]5(C(=O)O)C[C@H]5/C=C\CCCCC[C@H](NC(=O)OC5CCCC5)C(=O)N4C3)cc(-c3csc(NC(C)C)n3)nc2c1 [BILN2061, reference compound] | – | 5.3 | – | – | – | 0.072 | 0.071 | – | – | – | –
COC(=O)[C@@H]1C[C@@]23C(=NC(c4ccc([N+](=O)[O-])cc4)=C(C(F)(F)F)C2N(C)c2ccccc23)N1C(C)=O (some centres unmarked) [Compound 22a] | – | 310 | – | – | – | – | – | 1.3 | 0.9 | 5.6 | –
COC(=O)C1=C(C(=O)OC)C2N(CCCCCn3cc(CNC(C)=O)nn3)c3ccccc3[C@@]23CCC(=O)N(Cc2ccccc2)C3=N1 (some centres unmarked) [Compound 28] | – | 150 | 0.341 | – | – | – | – | 26.2 | 56.2 | – | sub-micromolar
